Results published in patent US20240018132A1, “5-HYDROXY-1,4-NAPHTHALENEDIONE FOR USE IN THE TREATMENT OF CANCER” (GODAVARI BIOREFINERIES LIMITED, priority 2020, published 2024).

Tests used:
[1] = tested on: MDAMB231; test: In vitro antiproliferative assay (MTT assay), breast cancer cell line; assay type: cell-based; conditions: Homo sapiens, MDA-MB-231, 48 h, MTT assay, breast cancer MDAMB231, 48 hrs drug incubation
Method: (§1) MTT assay is a simple and sensitive assay where, metabolic reducing activity of the cells is measured. The increase of this activity in time is taken as a parameter of cell growth. If treatment with a drug impairs this increase, the action is a consequence of growth inhibition, cell killing or both. […] All cell lines were cultured in a 37° C. incubator with a 5% CO2 environment. Compounds were dissolved in DMSO with a concentration of 0.1M (stock solution). Cells were seeded into 96-well plates at suitable plating efficiency.
(§2) Following plating efficiencies were standardized for MTT assay:
(§3) In the MTT procedure, the cells were plated in 96 well plates as per predetermined plating efficiency (Table1). The plates were then incubated for 24 hrs in 5% CO2 atmosphere at 37° C. Appropriate concentrations of the drugs were then added to the plate and further incubation was carried out for 48 hrs (in 5% CO2 atmosphere at 37° C.). The assay plate was then centrifuged twice at 3000 rpm for 3 mins and supernatant was then discarded. 100 ul of MTT solution (0.5 mg/ml) was then added to each well of the plate and it was further incubated for 4 hrs (in 5% CO2 atmosphere at 37° C.) Following 4 hr incubation, the plate was then centrifuged twice, and supernatant was aspirated off very carefully. 200 ul of DMSO was then added to each well to solubilize. MTT crystals and mixed well by shaking the plate. XY graph of log percent viability was then plotted against log drug concentration.

[2] = tested on: PC3; test: In vitro antiproliferative assay (MTT assay), prostate cancer cell line; assay type: cell-based; conditions: Homo sapiens, PC-3, 48 h, MTT assay, prostate cancer PC3, 48 hrs drug incubation
Method: as §1, §2, §3

[3] = tested on: MDAMB231; test: In vitro sphere-forming assay (cancer stem cells), Mammosphere media; conditions: for 3D sphere count of MDAMB231: Mammosphere media, 2000 cells/well, n = 6 ± S.D
Method: In Vitro Sphere-forming Assay: Sphere assay measures the ability of cancer stem cells (CSCs) to form spheres in specially designed serum-free medium.
Mammosphere Media Preparation (For 100 mL): 1 g methyl cellulose autoclaved with magnetic stirrer, 100 ml plain media (MEBM) was added and dissolved under magnetic stirring. After complete dissolution FGF-80 μL, EGF-40 μL, Penstrep-1 mL, Heparin-400 μL was added.
Procedure—The cells were trypsinised and made into single-cell suspension by passing through cell strainers (100 μl and 40 μl, respectively), The cells were diluted at a concentration of 2000 cells/100 μL and suspended in either Mammosphere (for breast cell lines) or Prostosphere (for prostate cell lines). 100 μL of this suspension was added into each well of 96-well suspension plates and incubated at 37° C., 5% CO2 for 24 hrs. Appropriate concentrations of the drugs (2 μL) were added into respective wells with 100 μL of stem cell culture medium. Plates were incubated at 37° C., 50 CO2 for 72 hrs. After incubation, 2.5 μL of the respective drug concentration and 50 μL of stem cell culture medium were added into each well and the plates were further incubated at 37° C., 50% CO2 for 72 hrs. 3 μL of the respective drug concentration was added with 50 μL of stem cell culture medium again after incubation and plates were reincubated for 72 hrs at 37° C., 50 CO2. Number of primary spheres formed for each concentration were counted. The spheres were converted to 0 viability of spheres compared to untreated (Growth Control with DMSO, GCD).

[4] = tested on: PC3; test: In vitro sphere-forming assay (cancer stem cells), Prostosphere media; conditions: for 3D sphere count of PC3: Prostosphere media, 2000 cells/well, n = 6 ± S.D
[5] = Homo sapiens, MDA-MB-231, read-out: % Viability of spheres (MDAMB231)
[6] = Homo sapiens, PC-3, read-out: % Viability of spheres (PC3)

| SMILES | IC50 [1] | IC50 [2] | viability at 0.0025 µM [3, 5] | viability at 0.025 µM [3, 5] | viability at 0.25 µM [3, 5] | viability at 2.5 µM [3, 5] | viability at 25 µM [3, 5] | 3D sphere count of MDAMB231 ([3]; drug 0.0025 uM) | 3D sphere count of MDAMB231 ([3]; drug 0.025 uM) | 3D sphere count of MDAMB231 ([3]; drug 0.25 uM) | 3D sphere count of MDAMB231 ([3]; drug 2.5 uM) | 3D sphere count of MDAMB231 ([3]; drug 25 uM) | viability at 0.025 µM [4, 6] | viability at 0.25 µM [4, 6] | viability at 2.5 µM [4, 6] | viability at 25 µM [4, 6] | 3D sphere count of PC3 ([4]; drug 0.025 uM) | 3D sphere count of PC3 ([4]; drug 0.25 uM) | 3D sphere count of PC3 ([4]; drug 2.5 uM) | 3D sphere count of PC3 ([4]; drug 25 uM) | also measured |
| --- | --- | --- | --- | --- | --- | --- | --- | --- | --- | --- | --- | --- | --- | --- | --- | --- | --- | --- | --- | --- | --- |
| O=C1C(Oc2ccc(F)cc2F)=CC(=O)c2c(OCCN3CCOCC3)cccc21 [Formula 74] | 0.109 µM | 0.225 µM | 73% | 48% | 35% | 27% | 12% | 60(±3) | 39(±3) | 29(±3) | 22(±4) | 10(±2) | 56% | 41% | 27% | 17% | 45(±2) | 36(±4) | 24(±4) | 15(±3) | viability at 0.0025 µM [4, 6]: 73%; 3D sphere count of PC3 ([4]; drug 0.0025 uM): 64(±6) |
| COc1ccc(OC2=CC(=O)c3c(OCCCN4CCOCC4)cccc3C2=O)cc1 [Formula 77] | 2.22 µM | 0.269 µM | 82% | 70% | 53% | 40% | 30% | 74(±4) | 63(±5) | 48(±3) | 36(±4) | 27(±3) | 68% | 51% | 36% | 26% | 55(±3) | 41(±3) | 29(±6) | 21(±3) | viability at 0.0025 µM [4, 6]: 80%; 3D sphere count of PC3 ([4]; drug 0.0025 uM): 64(±3) |
| COc1ccc(NC2=CC(=O)c3c(OCCN4CCOCC4)cccc3C2=O)cc1 [Formula 37, 5-(2-morpholinoethoxy)-2-(4-methoxyphenylamino) naphthalene-1,4-dione] | 4.61 µM | 4.44 µM |  | 82% | 66% | 56% | 39% |  | 82(±4) | 66(±5) | 56(±4) | 39(±3) | 89% | 69% | 56% | 37% | 89(±3) | 69(±3) | 56(±4) | 37(±4) | viability at 250 µM [3, 5]: 23%; 3D sphere count of MDAMB231 ([3]; drug 250 uM): 23(±3); viability at 250 µM [4, 6]: 20%; 3D sphere count of PC3 ([4]; drug 250 uM): 20(±4) |
| O=C1C(Oc2ccc3c(c2)OCO3)=CC(=O)c2c(OCCCCN3CCOCC3)cccc21 [Formula 47, 5-(4-morpholinobutoxy)-2-(benzo[d][1,3]dioxol-5-yloxy)naphthalene-1,4-dione] | 0.97 µM | 0.582 µM | 78% | 59% | 43% | 27% | 17% | 71(±2) | 53(±3) | 39(±3) | 25(±5) | 16(±3) | 57% | 43% | 28% | 18% | 46(±4) | 35(±3) | 23(±3) | 15(±3) | viability at 0.0025 µM [4, 6]: 77%; 3D sphere count of PC3 ([4]; drug 0.0025 uM): 62(±4) |
| O=C1C(Oc2ccc3c(c2)OCO3)=CC(=O)c2c(OCCN3CCOCC3)cccc21 [Formula 46, 5-(2-morpholinoethoxy)-2-(benzo[d][1,3]dioxol-5-yloxy)naphthalene-1,4-dione] | 1.37 µM | 1.35 µM | 74% | 60% | 49% | 32% | 20% | 67(±5) | 54(±4) | 44(±4) | 29(±3) | 18(±3) | 67% | 51% | 36% | 22% | 54(±4) | 41(±3) | 29(±3) | 18(±3) | viability at 0.0025 µM [4, 6]: 82%; 3D sphere count of PC3 ([4]; drug 0.0025 uM): 66(±3) |
| O=C1C(Oc2ccc(F)cc2)=CC(=O)c2c(OCCCN3CCOCC3)cccc21 [Formula 78] | 5.5 µM | 3.46 µM | 87% | 67% | 57% | 46% | 35% | 79(±3) | 65(±5) | 52(±4) | 42(±4) | 32(±3) | 68% | 53% | 41% | 30% | 55(±3) | 43(±3) | 33(±3) | 24(±4) | viability at 0.0025 µM [4, 6]: 81%; 3D sphere count of PC3 ([4]; drug 0.0025 uM): 65(±4) |
